{"source": "patent US7604671B2", "about": "“Perfumery for improved cold throw and burn in candle systems” (Givaudan Fragrances Corporation, priority 2004, dated 2009)", "origin": "cited, not measured here", "details": "Randebrock 1986", "data": [{"smiles": "CCCCCCCCCCC=O", "note": "[1-undecanal]", "values": [{"measurement": "experimental value for odor detection threshold in air", "result": 0.00054, "unit": "mg/m^3"}]}]}
